# From patent US20190231686A1, “METHODS FOR TREATING CYSTIC FIBROSIS AND OTHER DISEASES AFFECTING MUCOSAL SURFACES” (priority 2016, published 2019)
# Assays:
# [1] = test system: patients with cystic fibrosis; conditions: single inhalation, CF patients; cited from earlier work
# [2] = test system: P. aeruginosa
# [3] = test system: mucoid CF clinical isolates of P. aeruginosa; conditions: elevated CO2 concentrations; titration with bicarbonate
molecule,measurement,setting,value
N=C(N)NCCC[C@H](N)C(=O)O [L-arginine],Exhaled NO,[1],significantly increased
same,FEV1,[1],sustained improvement
reduced glutathione [GSH],"Ability of P. aeruginosa to utilize nitrate, nitrite or nitric oxide for respiration to grow",[2]; low oxygen conditions such as within biofilm,"limits the ability of P. aeruginosa to utilize nitrate, nitrite or nitric oxide for respiration"
same,Aerobic growth of P. aeruginosa,[2]; nitrite and nitric oxide in the presence of GSH,inhibit aerobic growth of P. aeruginosa
O=C(O)O [bicarbonate],Alginate expression,[3],suppressed
